Experimental data from ChEMBL document CHEMBL1121859, “Photochemical inactivation of the angiotensin receptor of rabbit aorta by N alpha-(2-nitro-5-azidobenzoyl)-[1-aspartic acid,5-isoleucine]angiotensin II” (1981).

Columns and labels:
Oryctolagus cuniculus [1] = species on record: Oryctolagus cuniculus; experiment: Compound was tested for the inhibition of nitroazidobenzoyl-angiotensin II induced contraction of rabbit aortic strips; pD2 is the negative logarithm of ED50; format: functional, Aorta
Oryctolagus cuniculus [2] = species on record: Oryctolagus cuniculus; experiment: Compound was tested for the inhibition of nitroazidobenzoyl-angiotensin II induced contraction of rabbit aortic strips; format: functional; settings: Aorta, read-out: ED50 (the source's name)

`CC[C@H](C)[C@H](NC(=O)[C@H](Cc1ccc(O)cc1)NC(=O)[C@@H](NC(=O)[C@H](CCCN=C(N)N)NC(=O)[C@H](CC(=O)O)NC(=O)c1cc(N=[N+]=[N-])ccc1[N+](=O)[O-])C(C)C)C(=O)N[C@@H](Cc1c[nH]cn1)C(=O)N1CCC[C@H]1C(=O)N[C@@H](Cc1ccccc1)C(=O)O` gave a pD2 (Oryctolagus cuniculus [1]) of 7.22 and an EC50 (Oryctolagus cuniculus [2]) of 0.0604 µM.
For `CC[C@H](C)[C@H](NC(=O)[C@H](Cc1ccc(O)cc1)NC(=O)[C@@H](NC(=O)[C@H](CCCNC(=N)N)NC(=O)[C@@H](N)CC(=O)O)C(C)C)C(=O)N[C@@H](Cc1cnc[nH]1)C(=O)N1CCC[C@H]1C(=O)N[C@@H](Cc1ccccc1)C(=O)O` [ANGIOTENSIN II], the pD2 (Oryctolagus cuniculus [1]) was 8.44 and the EC50 (Oryctolagus cuniculus [2]) was 0.00363 µM.
